Laboratory results published in US8946240B2, “4-amino-3-(imidazolyl)-pyrazolo[3,4-D]pyrimidines” (ChemoCentryx, Inc., priority 2008, dated 2015).

Target: T1, CCR1 (Homo sapiens, UniProt P32246)
T1 construct: host or cells: THP-1 cells or freshly isolated monocytes
T1 sequence (P32246 1-355): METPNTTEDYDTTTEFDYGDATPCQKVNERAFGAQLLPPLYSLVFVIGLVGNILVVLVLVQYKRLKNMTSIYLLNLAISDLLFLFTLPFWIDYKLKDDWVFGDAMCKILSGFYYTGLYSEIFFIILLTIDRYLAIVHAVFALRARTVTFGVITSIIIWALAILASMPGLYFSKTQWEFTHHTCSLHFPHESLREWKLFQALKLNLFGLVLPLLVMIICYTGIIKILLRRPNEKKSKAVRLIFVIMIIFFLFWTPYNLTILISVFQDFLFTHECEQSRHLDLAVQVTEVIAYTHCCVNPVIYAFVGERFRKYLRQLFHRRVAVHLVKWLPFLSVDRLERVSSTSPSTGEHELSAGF
Test: chemotaxis assay (THP-1 cells or monocytes migrating to CCR1 chemokine ligands)
Type: cell-based
Conditions: for activity in direct comparisons relative to the related compounds tested: versus imidazole-substituted pyrido[4,3-b]pyrazoles of related U.S. application Ser. No. 12/124,894
Description: THP-1 cells were obtained from ATCC (TIB-202) and cultured as a suspension in RPMI-1640 medium supplemented with 2 mM L-glutamine, 1.5 g/L sodium bicarbonate, 4.5 g/L glucose, 10 mM HEPES, 1 mM sodium pyruvate, 0.05% 2-mercaptoethanol and 10% FBS. Cells were grown under 5% CO2/95% air, 100% humidity at 37° C. and subcultured twice weekly at 1:5 (cells were cultured at a density range of 2×10^5 to 2×10^6 cells/mL) and harvested at 1×10^6 cells/mL. THP-1 cells express CCR1 and can be used in CCR1 binding and functional assays.
One of the primary functions of chemokines is their ability to mediate the migration of chemokine receptor-expressing cells, such as white blood cells. To confirm that a compound of interest inhibited not only CCR1 specific binding and signaling (at least as determined by calcium mobilization assays), but also CCR1 mediated migration, a chemotaxis assay was employed. THP-1 myelomonocytic leukemia cells, which resemble monocytes, as wells as freshly isolated monocytes, were used as targets for chemoattraction by CCR1 chemokine ligands (i.e., MIP-1α, CCL15/leukotactin). Cells were place in the top compartment of a microwell migration chamber, 5 μm pore polycarbonate, polyvinylpyrrolidone-coated filters in 96-well chemotaxis chambers (Neuroprobe; Gaithersburg, Md.) using chemotaxis buffer (Hank's balanced salt solution (HBSS) and 1% FBS. CCR1 chemokine ligands (i.e., MIP-1α, CCL15/Leukotactin; R&D Systems; Minneapolis, Minn.) are used to evaluate compound mediated inhibition of CCR1 mediated migration. Other chemokines (i.e., SDF-1α; R&D Systems; Minneapolis, Minn.) are used as specificity controls. The lower chamber was loaded with 29 μl of chemokine (i.e., 0.1 nM CCL15/Leukotactin) and varying amounts of compound; the top chamber contained 100,000 THP-1 or monocyte cells in 20 μl. […] To ascertain a compound of interest's affinity for CCR1 as well as to confirm its ability to inhibit CCR1 mediated cell migration, inhibitory activity was titered over a 1×10^−10 to 1×10^−4 M range of compound concentrations in this chemotaxis assay. In this assay, the amount of compound was varied; while cell number and chemokine agonist concentrations were held constant. After the chemotaxis chambers were incubated 1-2 hours at 37° C., the responding cells in the lower chamber were quantified by labeling with the CyQuant assay (Molecular Probes), a fluorescent dye method that measures nucleic acid content, and by measuring with a Spectrafluor Plus (Tecan). The computer program Prism from GraphPad, Inc. (San Diego, Calif.) was used to calculate IC50 values. IC50 values are those compound concentrations required to inhibit the number of cells responding to a CCR1 agonist by 50%.

Row | SMILES | activity in direct comparisons relative to the related compounds tested | IC50 relative to comparator compound (chemotaxis assay, compared with drawing 40)
1 | COc1cc(N2CCN(C(=O)Cn3nc(-c4ncc[nH]4)c4c(N)ncnc43)[C@@H](C)C2)ccc1Cl [Compound 1.004] | at least an order of magnitude better | –
2 | COc1cc(N2CCN(C(=O)Cn3nc(-c4ncc[nH]4)c4c(N)ncnc43)CC2)ccc1Cl [Compound 1.001] | at least an order of magnitude better | –
3 | CCOc1cc(N2CCN(C(=O)Cn3nc(-c4ncc[nH]4)c4c(N)ncnc43)[C@@H](C)C2)ccc1Cl [Compound 1.011] | at least an order of magnitude better | –
4 | COc1cc(N2CCN(C(=O)Cn3nc(-c4ncc[nH]4)c4c(N)ncnc43)[C@@H](C)C2)c(F)cc1Cl [drawing 39] | – | an order of magnitude lower
5 | CCOc1cc(N2CCN(C(=O)Cn3nc(-c4ncc[nH]4)c4c(N)ncnc43)CC2)ccc1Cl [Compound 1.007] | at least an order of magnitude better | –
6 | C[C@H]1CN(c2ccc(Cl)cc2F)CCN1C(=O)Cn1nc(-c2ncc[nH]2)c2c(N)ncnc21 [Compound 1.003] | at least an order of magnitude better | –
7 | Nc1ncnc2c1c(-c1ncc[nH]1)nn2CC(=O)N1CCN(c2ccc(Cl)c(OC(F)(F)F)c2)CC1 [Compound 1.010] | at least an order of magnitude better | –
8 | COc1cc(N2CCN(C(=O)Cn3nc(-c4ncc[nH]4)c4c(N)ncnc43)[C@@H](C)C2)c(F)cc1Cl [Compound 1.006] | at least an order of magnitude better | –
